The values below come from publication PMC3486884 (PLoS Pathogens, 2012).

Like-named read-outs stand apart in the source and are kept apart here.

For test [1], the system named is HRV1A. In words: microbe, parasite or virus in culture. The settings on record: Human rhinovirus sp.; for activity at 0.03 µM / activity at 0.1 µM / activity at 0.31 µM / activity at 0.93 µM / activity at 2.78 µM / activity at 8.33 µM / activity at 25 µM: M-HeLa, 7 h; for activity at 0.03 µM: read-out: HRV1A infection (dsRNA), 0.03 µM; for activity at 0.1 µM: read-out: HRV1A infection (dsRNA), 0.10 µM; for activity at 0.31 µM: read-out: HRV1A infection (dsRNA), 0.31 µM; for activity at 0.93 µM: read-out: HRV1A infection (dsRNA), 0.93 µM; for activity at 2.78 µM: read-out: HRV1A infection (dsRNA), 2.78 µM; for activity at 8.33 µM: read-out: HRV1A infection (dsRNA), 8.33 µM; for activity at 25 µM: read-out: HRV1A infection (dsRNA), 25.00 µM.

Test [2] has as its system HRV1A. The settings on record: for relative infection: n=2.
In test [3] the test system is CVA21. To be noted: n=2.
The test system of test [4] is influenza virus (strain A/Puerto Rico/8/34/H1N1 depicted PR8). Description: microbe, parasite or virus in culture. The settings on record: unidentified influenza virus, A549, read-out: IC50 (PR8).
Test [5] deals with CVA21. In words: microbe, parasite or virus in culture. The settings on record: Coxsackievirus, CVA21, HeLa, read-out: IC50 (CVA21).
Test [6] has as its system HRV2. To be noted: n=2.
For test [7], the system named is HRV2. Description: microbe, parasite or virus in culture. To be noted: Human rhinovirus sp., HRV2, HeLa, read-out: IC50 (HRV2).
Another test concerns CVB3. To be noted: n=2.
In test [8] the test system is HRV14. To be noted: n=2.
Test [9] deals with HRV14. Description: microbe, parasite or virus in culture. To be noted: Human rhinovirus sp., HRV14, HeLa, read-out: IC50 (HRV14).
The next test relates to CVB4. The settings on record: n=2.
A further test concerns HRV16. To be noted: n=2.

As for `COc1ccccc1C(=O)Nc1ccc(C(F)(F)F)cc1Cl` [TVB-1323], in the test with HRV1A [1], the activity at 0.03 µM came out at 101%, the activity at 0.1 µM amounted to 95%, the activity at 0.31 µM was found to be 97% and the activity at 0.93 µM was 97%. In the test with HRV1A [1], the activity at 2.78 µM came out at 106%, the activity at 8.33 µM was 108% and the activity at 25 µM was determined as 113%. For the same compound, the “antiviral activity against HRV1A (structure-activity study, in words)” value (from here on “antiviral activity against HRV1A”) with HRV1A [2] is given as “reduced antiviral efficacy”.

As for `COc1c(C)cccc1C(=O)Nc1ccc([N+](=O)[O-])cc1Cl` [TVB-1324], in the test with HRV1A [1], the activity at 0.03 µM came to 104%, the activity at 0.1 µM is 105%, the activity at 0.31 µM amounted to 98% and the activity at 0.93 µM stood at 99%. In addition, in the test on HRV1A [1], the activity at 2.78 µM was found to be 88%, the activity at 8.33 µM came to 94% and the activity at 25 µM came out at 107%. Also, the “antiviral activity against HRV1A” value with HRV1A [2] is given as “eliminated antiviral activity”.

Turning to `COC(=O)c1ccc(Cl)c(NC(=O)c2ccccc2OC)c1` [TVB-1325], in the test on HRV1A [1], the activity at 0.03 µM amounted to 91%, the activity at 0.1 µM came to 97%, the activity at 0.31 µM turned out to be 86% and the activity at 0.93 µM turned out to be 95%. For the same compound, in the test with HRV1A [1], the activity at 2.78 µM was determined as 83%, the activity at 8.33 µM is 73% and the activity at 25 µM was found to be 80%. Besides, the “antiviral activity against HRV1A” value with HRV1A [2] is given as “reduced antiviral efficacy”.

Turning to `CCC(=O)Nc1ccc(Cl)c(NC(=O)c2ccccc2OC)c1` [TVB-1327], in the test with HRV1A [1], the activity at 0.03 µM was found to be 118%, the activity at 0.1 µM was determined as 118%, the activity at 0.31 µM turned out to be 110% and the activity at 0.93 µM was found to be 107%. Moreover, in the test with HRV1A [1], the activity at 2.78 µM turned out to be 96%, the activity at 8.33 µM amounted to 107% and the activity at 25 µM stood at 115%. The “antiviral activity against HRV1A” value with HRV1A [2] is “reduced antiviral efficacy”.

With `CCOc1ccccc1C(=O)Nc1ccc([N+](=O)[O-])cc1Cl` [TVB-1328], in the test on HRV1A [1], the activity at 0.03 µM was determined as 99%, the activity at 0.1 µM worked out at 90%, the activity at 0.31 µM amounted to 86% and the activity at 0.93 µM was 89%. Also, in the test with HRV1A [1], the activity at 2.78 µM was 90%, the activity at 8.33 µM is 95% and the activity at 25 µM came out at 107%. Moreover, the “antiviral activity against HRV1A” value with HRV1A [2] is recorded as “eliminated antiviral activity”.

`O=C(Nc1ccc([N+](=O)[O-])cc1Cl)c1cc(Cl)ccc1OCCOc1ccccc1` [TVB-1329]: the relative infection with CVA21 [3] (0.1 µM) is on record as 0.86; in the test on CVA21 [3] (0.3 µM), 0.97; in the test on CVA21 [3] (0.9 µM), 1.08; in the test on CVA21 [3] (2.8 µM), 1.13; in the test with CVA21 [3] (8.3 µM), 1.29; in the test on CVA21 [3] (25.0 µM), 0.68. Further, the relative infection is given as 1.03 with HRV2 [6] (0.1 µM); 1.10 in the test with HRV2 [6] (0.3 µM); 0.98 in the test with HRV2 [6] (0.9 µM); 0.68 with HRV2 [6] (2.8 µM); 0.36 in the test on HRV2 [6] (8.3 µM); 0.02 in the test with HRV2 [6] (25.0 µM). The relative infection in the test on CVB3 (0.1 µM) is on record as 0.97; with CVB3 (0.3 µM), 1.06; in the test on CVB3 (0.9 µM), 1.19; in the test on CVB3 (2.8 µM), 1.25; with CVB3 (8.3 µM), 1.07; in the test on CVB3 (25.0 µM), 1.01. The relative infection came out at 0.86 in the test on HRV14 [8] (0.1 µM); 0.87 with HRV14 [8] (0.3 µM); 0.97 in the test on HRV14 [8] (0.9 µM); 0.86 in the test with HRV14 [8] (2.8 µM); 0.58 with HRV14 [8] (8.3 µM); 0.10 in the test on HRV14 [8] (25.0 µM). The relative infection in the test with HRV1A [2] (0.1 µM) was determined as 1.00; in the test with HRV1A [2] (0.3 µM), 1.04; with HRV1A [2] (0.9 µM), 1.10; with HRV1A [2] (2.8 µM) it was 1.02; with HRV1A [2] (8.3 µM) it was 0.59; in the test on HRV1A [2] (25.0 µM), 0.05. Moreover, the relative infection with CVB4 (0.1 µM) is 1.12; in the test on CVB4 (0.3 µM), 1.28; with CVB4 (0.9 µM), 1.51; in the test on CVB4 (2.8 µM) it was 1.62; in the test on CVB4 (8.3 µM), 1.33; with CVB4 (25.0 µM), 0.46. The relative infection worked out at 0.84 in the test on HRV16 (0.1 µM); 0.98 in the test on HRV16 (0.3 µM); 1.04 in the test on HRV16 (0.9 µM); 1.26 with HRV16 (2.8 µM); 0.99 in the test on HRV16 (8.3 µM); 0.14 in the test on HRV16 (25.0 µM). Besides, the IC50 in [4] is 10.3 µM; in the test on CVA21 [5], ~26.6 µM; with HRV2 [7], 5.07 µM; with HRV1A [1] (HeLa, read-out: IC50 (HRV1A)), 9.34 µM; in the test on HRV14 [9], 9.3 µM. The activity at 0.03 µM in the test with HRV1A [1] amounted to 112%. In addition, the activity at 0.1 µM with HRV1A [1] was determined as 112%. Further, the activity at 0.31 µM in the test with HRV1A [1] came out at 119%. For the same compound, in the test on HRV1A [1], the activity at 0.93 µM is 123%. The activity at 2.78 µM in the test on HRV1A [1] stood at 111%. Also, the activity at 8.33 µM with HRV1A [1] is 47%. In the test on HRV1A [1], the activity at 25 µM is 6%. The “antiviral activity against HRV1A” value in the test with HRV1A [2] is “did not diminish the antiviral efficacy compared to niclosamide”.

Turning to `COc1ccc(Cl)cc1C(=O)Nc1cc([N+](=O)[O-])ccc1Cl` [TVB-1330], in the test with HRV1A [1], the activity at 0.03 µM came to 101%, the activity at 0.1 µM amounted to 103%, the activity at 0.31 µM turned out to be 99% and the activity at 0.93 µM amounted to 97%. Also, in the test with HRV1A [1], the activity at 2.78 µM turned out to be 101%, the activity at 8.33 µM was found to be 105% and the activity at 25 µM stood at 111%. Also, the “antiviral activity against HRV1A” value in the test on HRV1A [2] is given as “reduced antiviral efficacy”.

Take `CCOc1ccccc1C(=O)Nc1ccc(Cl)cc1Cl` [TVB-1331]: in the test with HRV1A [1], the activity at 0.03 µM was found to be 119%, the activity at 0.1 µM stood at 118%, the activity at 0.31 µM amounted to 112% and the activity at 0.93 µM came out at 107%. In the test on HRV1A [1], the activity at 2.78 µM amounted to 108%, the activity at 8.33 µM came to 106% and the activity at 25 µM was 113%. The “antiviral activity against HRV1A” value in the test on HRV1A [2] was “eliminated antiviral activity”.

As to `COc1ccccc1C(=O)Nc1ccc([N+](=O)[O-])cc1Cl` [TVB-1333], in the test on HRV1A [1], the activity at 0.03 µM is 112%, the activity at 0.1 µM was 99%, the activity at 0.31 µM stood at 107% and the activity at 0.93 µM is 92%. In the test with HRV1A [1], the activity at 2.78 µM is 84%, the activity at 8.33 µM is 157% and the activity at 25 µM was determined as 207%. For the same compound, the “antiviral activity against HRV1A” value in the test with HRV1A [2] is recorded as “eliminated antiviral activity”.

With `Nc1ccc(NC(=O)c2cc(Cl)ccc2O)c(Cl)c1` [TVB-1335], in the test on HRV1A [1], the activity at 0.03 µM stood at 109%, the activity at 0.1 µM came to 102%, the activity at 0.31 µM worked out at 103% and the activity at 0.93 µM was found to be 105%. Moreover, in the test on HRV1A [1], the activity at 2.78 µM came to 98%, the activity at 8.33 µM was 96% and the activity at 25 µM amounted to 104%. Also, the “antiviral activity against HRV1A” value in the test with HRV1A [2] is “eliminated antiviral activity”.

As to `O=C(Nc1ccc(NS(=O)(=O)c2ccccc2)cc1Cl)c1cc(Cl)ccc1O` [TVB-1336], in the test on HRV1A [1], the activity at 0.03 µM worked out at 102%, the activity at 0.1 µM turned out to be 97%, the activity at 0.31 µM was determined as 105% and the activity at 0.93 µM was found to be 105%. Besides, in the test with HRV1A [1], the activity at 2.78 µM worked out at 104%, the activity at 8.33 µM was found to be 105% and the activity at 25 µM worked out at 103%. Moreover, the “antiviral activity against HRV1A” value with HRV1A [2] was “eliminated antiviral activity”.

For the compound `COc1ccc(Br)cc1C(=O)Nc1cc([N+](=O)[O-])ccc1Cl` [TVB-1337], in the test with HRV1A [1], the activity at 0.03 µM was 112%, the activity at 0.1 µM was found to be 104%, the activity at 0.31 µM came to 107% and the activity at 0.93 µM is 104%. In the test on HRV1A [1], the activity at 2.78 µM came to 105%, the activity at 8.33 µM was 111% and the activity at 25 µM was 117%. Further, in the test on HRV1A [2], the “antiviral activity against HRV1A” value is given as “reduced antiviral efficacy”.
